Reference: the NIST ThermoML archive (doi:10.1021/je060271a)
± gives the expanded uncertainty stated by the source.

Conditions: Liquid, Vibrating tube method

## CCCCCC(=O)OCC(COC(=O)CCCCC)(COC(=O)CCCCC)COC(=O)CCCCC [pentaerythritol tetrahexanoate]
323.16 K, 30799 kPa
  mass density: 992.6 ± 1.2 kg/m3
323.16 K, 30820 kPa
  mass density: 992.6 ± 1.2 kg/m3
323.16 K, 30845 kPa
  mass density: 992.6 ± 1.2 kg/m3
323.16 K, 30870 kPa
  mass density: 992.7 ± 1.2 kg/m3
323.16 K, 30895 kPa
  mass density: 992.6 ± 1.2 kg/m3
323.16 K, 30916 kPa
  mass density: 992.5 ± 1.2 kg/m3
323.16 K, 30942 kPa
  mass density: 992.7 ± 1.2 kg/m3
323.16 K, 30968 kPa
  mass density: 992.6 ± 1.2 kg/m3
323.16 K, 30994 kPa
  mass density: 992.7 ± 1.2 kg/m3
323.16 K, 31020 kPa
  mass density: 992.9 ± 1.2 kg/m3
323.16 K, 31046 kPa
  mass density: 992.7 ± 1.2 kg/m3
323.16 K, 31070 kPa
  mass density: 992.8 ± 1.2 kg/m3
323.16 K, 31096 kPa
  mass density: 992.8 ± 1.2 kg/m3
323.16 K, 31122 kPa
  mass density: 992.8 ± 1.2 kg/m3
323.16 K, 31139 kPa
  mass density: 992.8 ± 1.2 kg/m3
323.16 K, 31159 kPa
  mass density: 992.8 ± 1.2 kg/m3
323.16 K, 31180 kPa
  mass density: 992.8 ± 1.2 kg/m3
323.16 K, 31200 kPa
  mass density: 992.8 ± 1.2 kg/m3
323.16 K, 31217 kPa
  mass density: 992.9 ± 1.2 kg/m3
323.16 K, 31237 kPa
  mass density: 992.9 ± 1.2 kg/m3
323.16 K, 31258 kPa
  mass density: 992.9 ± 1.2 kg/m3
323.16 K, 31278 kPa
  mass density: 993 ± 1.2 kg/m3
323.16 K, 31295 kPa
  mass density: 992.7 ± 1.2 kg/m3
323.16 K, 31315 kPa
  mass density: 993 ± 1.2 kg/m3
323.16 K, 31335 kPa
  mass density: 992.9 ± 1.2 kg/m3
323.16 K, 31356 kPa
  mass density: 993 ± 1.2 kg/m3
323.16 K, 31378 kPa
  mass density: 992.9 ± 1.2 kg/m3
323.16 K, 31395 kPa
  mass density: 992.9 ± 1.2 kg/m3
323.16 K, 31412 kPa
  mass density: 993 ± 1.2 kg/m3
323.16 K, 31433 kPa
  mass density: 993.1 ± 1.2 kg/m3
323.16 K, 31554 kPa
  mass density: 993.1 ± 1.2 kg/m3
323.16 K, 31575 kPa
  mass density: 993.1 ± 1.2 kg/m3
323.16 K, 31592 kPa
  mass density: 993.1 ± 1.2 kg/m3
323.16 K, 31613 kPa
  mass density: 993 ± 1.2 kg/m3
323.16 K, 31635 kPa
  mass density: 993 ± 1.2 kg/m3
323.16 K, 31777 kPa
  mass density: 993.1 ± 1.2 kg/m3
323.16 K, 31798 kPa
  mass density: 993.2 ± 1.2 kg/m3
323.16 K, 31820 kPa
  mass density: 993.2 ± 1.2 kg/m3
323.16 K, 31838 kPa
  mass density: 993.2 ± 1.2 kg/m3
323.16 K, 31860 kPa
  mass density: 993.2 ± 1.2 kg/m3
323.16 K, 31882 kPa
  mass density: 993.2 ± 1.2 kg/m3
323.16 K, 31905 kPa
  mass density: 993.3 ± 1.2 kg/m3
323.16 K, 31927 kPa
  mass density: 993.3 ± 1.2 kg/m3
323.16 K, 31950 kPa
  mass density: 993.2 ± 1.2 kg/m3
323.16 K, 31973 kPa
  mass density: 993.4 ± 1.2 kg/m3
323.16 K, 31996 kPa
  mass density: 993.3 ± 1.2 kg/m3
323.16 K, 32016 kPa
  mass density: 993.3 ± 1.2 kg/m3
323.16 K, 32032 kPa
  mass density: 993.4 ± 1.2 kg/m3
323.16 K, 32048 kPa
  mass density: 993.4 ± 1.2 kg/m3
323.16 K, 32064 kPa
  mass density: 993.3 ± 1.2 kg/m3
323.16 K, 32081 kPa
  mass density: 993.4 ± 1.2 kg/m3
323.16 K, 32097 kPa
  mass density: 993.3 ± 1.2 kg/m3
323.16 K, 32114 kPa
  mass density: 993.3 ± 1.2 kg/m3
323.16 K, 32132 kPa
  mass density: 993.4 ± 1.2 kg/m3
323.16 K, 32149 kPa
  mass density: 993.3 ± 1.2 kg/m3
323.16 K, 32165 kPa
  mass density: 993.4 ± 1.2 kg/m3
323.16 K, 32183 kPa
  mass density: 993.4 ± 1.2 kg/m3
323.16 K, 32202 kPa
  mass density: 993.5 ± 1.2 kg/m3
323.16 K, 32221 kPa
  mass density: 993.5 ± 1.2 kg/m3
323.16 K, 32240 kPa
  mass density: 993.4 ± 1.2 kg/m3
323.16 K, 32260 kPa
  mass density: 993.5 ± 1.2 kg/m3
323.16 K, 32366 kPa
  mass density: 993.4 ± 1.2 kg/m3
323.16 K, 32374 kPa
  mass density: 993.5 ± 1.2 kg/m3
323.16 K, 32380 kPa
  mass density: 993.5 ± 1.2 kg/m3
323.16 K, 32383 kPa
  mass density: 993.5 ± 1.2 kg/m3
323.17 K, 1378.9 kPa
  mass density: 973.7 ± 1.2 kg/m3
323.17 K, 2060 kPa
  mass density: 974 ± 1.2 kg/m3
323.17 K, 2070.1 kPa
  mass density: 974.2 ± 1.2 kg/m3
323.17 K, 15528 kPa
  mass density: 983.3 ± 1.2 kg/m3
323.17 K, 15553 kPa
  mass density: 983.3 ± 1.2 kg/m3
323.17 K, 15582 kPa
  mass density: 983.4 ± 1.2 kg/m3
323.17 K, 15606 kPa
  mass density: 983.4 ± 1.2 kg/m3
323.17 K, 15845 kPa
  mass density: 983.4 ± 1.2 kg/m3
323.17 K, 15865 kPa
  mass density: 983.5 ± 1.2 kg/m3
323.17 K, 15889 kPa
  mass density: 983.4 ± 1.2 kg/m3
323.17 K, 15909 kPa
  mass density: 983.5 ± 1.2 kg/m3
323.17 K, 15932 kPa
  mass density: 983.5 ± 1.2 kg/m3
323.17 K, 15952 kPa
  mass density: 983.3 ± 1.2 kg/m3
323.17 K, 15976 kPa
  mass density: 983.5 ± 1.2 kg/m3
323.17 K, 16001 kPa
  mass density: 983.4 ± 1.2 kg/m3
323.17 K, 16021 kPa
  mass density: 983.6 ± 1.2 kg/m3
323.17 K, 16045 kPa
  mass density: 983.5 ± 1.2 kg/m3
323.17 K, 16069 kPa
  mass density: 983.6 ± 1.2 kg/m3
323.17 K, 16089 kPa
  mass density: 983.6 ± 1.2 kg/m3
323.17 K, 16114 kPa
  mass density: 983.7 ± 1.2 kg/m3
323.17 K, 16135 kPa
  mass density: 983.7 ± 1.2 kg/m3
323.17 K, 16160 kPa
  mass density: 983.6 ± 1.2 kg/m3
323.17 K, 16308 kPa
  mass density: 983.8 ± 1.2 kg/m3
323.17 K, 16329 kPa
  mass density: 983.7 ± 1.2 kg/m3
323.17 K, 16337 kPa
  mass density: 983.7 ± 1.2 kg/m3
323.17 K, 16338 kPa
  mass density: 983.8 ± 1.2 kg/m3
323.17 K, 16340 kPa
  mass density: 983.8 ± 1.2 kg/m3
323.17 K, 19154 kPa
  mass density: 985.4 ± 1.2 kg/m3
323.17 K, 19182 kPa
  mass density: 985.6 ± 1.2 kg/m3
323.17 K, 19210 kPa
  mass density: 985.5 ± 1.2 kg/m3
323.17 K, 19238 kPa
  mass density: 985.5 ± 1.2 kg/m3
323.17 K, 19267 kPa
  mass density: 985.7 ± 1.2 kg/m3
323.17 K, 19296 kPa
  mass density: 985.6 ± 1.2 kg/m3
323.17 K, 19320 kPa
  mass density: 985.7 ± 1.2 kg/m3
323.17 K, 19350 kPa
  mass density: 985.6 ± 1.2 kg/m3
323.17 K, 20368 kPa
  mass density: 986.3 ± 1.2 kg/m3
323.17 K, 20425 kPa
  mass density: 986.4 ± 1.2 kg/m3
323.17 K, 22257 kPa
  mass density: 987.5 ± 1.2 kg/m3
323.17 K, 22284 kPa
  mass density: 987.5 ± 1.2 kg/m3
323.17 K, 22311 kPa
  mass density: 987.5 ± 1.2 kg/m3
323.17 K, 22338 kPa
  mass density: 987.6 ± 1.2 kg/m3
323.17 K, 22361 kPa
  mass density: 987.6 ± 1.2 kg/m3
323.17 K, 22388 kPa
  mass density: 987.5 ± 1.2 kg/m3
323.17 K, 22416 kPa
  mass density: 987.7 ± 1.2 kg/m3
323.17 K, 22443 kPa
  mass density: 987.6 ± 1.2 kg/m3
323.17 K, 22466 kPa
  mass density: 987.7 ± 1.2 kg/m3
323.17 K, 22493 kPa
  mass density: 987.7 ± 1.2 kg/m3
323.17 K, 22520 kPa
  mass density: 987.5 ± 1.2 kg/m3
323.17 K, 25533 kPa
  mass density: 989.4 ± 1.2 kg/m3
323.17 K, 25562 kPa
  mass density: 989.5 ± 1.2 kg/m3
323.17 K, 25592 kPa
  mass density: 989.5 ± 1.2 kg/m3
323.17 K, 25621 kPa
  mass density: 989.5 ± 1.2 kg/m3
323.17 K, 25651 kPa
  mass density: 989.4 ± 1.2 kg/m3
323.17 K, 25676 kPa
  mass density: 989.5 ± 1.2 kg/m3
323.17 K, 25737 kPa
  mass density: 989.6 ± 1.2 kg/m3
323.17 K, 25767 kPa
  mass density: 989.6 ± 1.2 kg/m3
323.17 K, 25792 kPa
  mass density: 989.7 ± 1.2 kg/m3
323.17 K, 25823 kPa
  mass density: 989.7 ± 1.2 kg/m3
323.17 K, 25853 kPa
  mass density: 989.7 ± 1.2 kg/m3
323.17 K, 25884 kPa
  mass density: 989.6 ± 1.2 kg/m3
323.17 K, 25909 kPa
  mass density: 989.8 ± 1.2 kg/m3
323.17 K, 25940 kPa
  mass density: 989.8 ± 1.2 kg/m3
323.17 K, 25972 kPa
  mass density: 989.8 ± 1.2 kg/m3
323.17 K, 26003 kPa
  mass density: 989.7 ± 1.2 kg/m3
323.17 K, 26033 kPa
  mass density: 989.7 ± 1.2 kg/m3
323.17 K, 26762 kPa
  mass density: 990.3 ± 1.2 kg/m3
323.17 K, 26791 kPa
  mass density: 990.3 ± 1.2 kg/m3
323.17 K, 26815 kPa
  mass density: 990.1 ± 1.2 kg/m3
323.17 K, 26845 kPa
  mass density: 990.3 ± 1.2 kg/m3
323.17 K, 26872 kPa
  mass density: 990.3 ± 1.2 kg/m3
323.17 K, 26901 kPa
  mass density: 990.4 ± 1.2 kg/m3
323.17 K, 26930 kPa
  mass density: 990.4 ± 1.2 kg/m3
323.17 K, 26959 kPa
  mass density: 990.3 ± 1.2 kg/m3
323.17 K, 26984 kPa
  mass density: 990.3 ± 1.2 kg/m3
323.17 K, 27013 kPa
  mass density: 990.3 ± 1.2 kg/m3
323.17 K, 27043 kPa
  mass density: 990.5 ± 1.2 kg/m3
323.17 K, 27073 kPa
  mass density: 990.4 ± 1.2 kg/m3
323.17 K, 27102 kPa
  mass density: 990.4 ± 1.2 kg/m3
323.17 K, 27127 kPa
  mass density: 990.4 ± 1.2 kg/m3
323.17 K, 27157 kPa
  mass density: 990.4 ± 1.2 kg/m3
